From patent US9296687B2, “Modulators of HSP70/DnaK function and methods of use thereof” (The Trustees of the University of Pennsylvania, priority 2008, dated 2016) come the findings set out here.

Series [1] addresses T1, HSP70 (Homo sapiens, UniProt P0DMV8). Briefly: Capture of HA-tagged HSP70 constructs from transfected H1299 cells with biotinylated compound. The format is binding. The arrangement: expressed in transfected cells; host or cells: H1299. The conditions noted are these: biotinylated compound, 6 hours. The method, then: FIG. 1. PES Binds to HSP70. (A) Whole cell extracts (WCE) prepared from A875 and BCL-xL over-expressing U2OS human osteosarcoma cells (BX-U2OS) cells, treated with Biotin or Biotin-PES (B-PES), were captured using NeutrAvidin agarose resins. HSP70-family proteins were identified as the major product in the excised band of ˜70 kDa shown in both Coomassie gels. (B and C) WCE were prepared from the cell lines indicated following 24 h treatment with 20 μM Biotin or B-PES and examined for the expression of proteins indicated (left panel of B and C) by western blot analysis; note that different exposure times were used to visualize these proteins. […] (D) In vitro evidence for an interaction between B-PES and HSP70. Full-length human HSP70 and human HSP90 proteins were in vitro translated in the presence of ^35S-methionine, mixed with B-PES coupled to NeutrAvidin resins, and eluted using 100 mM DTT. The resulting DTT eluates were separated by polyacrylamide gel electrophoresis (SDS-PAGE) and visualized by autoradiography. (E) B-PES interacts with the C-terminal region of HSP70. H1299 cells were transfected with the indicated hemagglutinin (HA)-tagged constructs and exposed to B-PES. B-PES containing complexes were captured by NeutrAvidin Resins, eluted following 100 mM DTT treatment, and immunoblotted with anti-HA antibody following SDS-PAGE. (F) Non-transformed human IMR90 fibroblasts or H1299 lung carcinoma cells were treated with the indicated concentrations of PES for 24 h and cell viability was determined by MTT assays. (G) WCE were prepared from the cell lines indicated following 5 hr treatment with 20 μM PES or B-PES and examined for the expression of proteins indicated (left panel) by western blot analysis; note that different exposure times were used to visualize these proteins. B-PES-containing complexes were captured by NeutrAvidin resins, eluted following 50 mM DTT treatment, and immunoblotted using the indicated antibodies.
The free amide group of PES-Cl was biotinylated and added to HA-tagged HSP70-transfected H1299 cells. The treatment of the cells occurred for 6 hours. The complexes were pulled down with NeutrAvidin beads, eluted with 100 mM DTT treatments, separated with SDS-PAGE and detected with anti-HA antibody (Millipore) by Western blot.
Docking studies were performed using the C-terminal HSP70 crystal structure (FIG. 32) to elucidate the PES binding site in silico (FIG. 33). Blind docking methods were used in the program AutoDock to locate potential PES binding sites. These methods use a course grid docking approach, encompassing the entire protein, to identify favorable binding sites using a known binding ligand, and are examined by hand to support the AutoDock data. […]
Target sequence in this assay (P0DMV8 2-641): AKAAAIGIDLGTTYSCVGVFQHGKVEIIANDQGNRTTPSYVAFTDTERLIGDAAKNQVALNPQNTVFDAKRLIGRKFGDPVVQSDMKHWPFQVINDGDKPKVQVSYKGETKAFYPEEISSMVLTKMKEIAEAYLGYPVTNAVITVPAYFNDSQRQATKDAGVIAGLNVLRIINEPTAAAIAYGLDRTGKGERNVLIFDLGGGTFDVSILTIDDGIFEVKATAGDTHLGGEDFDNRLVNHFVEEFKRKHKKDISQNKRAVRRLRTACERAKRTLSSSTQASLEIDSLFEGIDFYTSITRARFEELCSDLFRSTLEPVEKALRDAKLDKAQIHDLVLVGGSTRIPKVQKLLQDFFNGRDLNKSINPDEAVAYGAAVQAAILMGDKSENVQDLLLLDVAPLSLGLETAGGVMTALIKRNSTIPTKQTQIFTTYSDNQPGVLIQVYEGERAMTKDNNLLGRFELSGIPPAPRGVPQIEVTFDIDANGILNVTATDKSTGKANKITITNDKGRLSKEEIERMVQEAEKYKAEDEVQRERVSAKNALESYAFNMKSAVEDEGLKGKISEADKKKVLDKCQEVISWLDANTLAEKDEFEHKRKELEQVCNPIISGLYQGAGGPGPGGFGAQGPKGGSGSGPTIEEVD

For series [2], the system named is HSP70. Described as above. The conditions noted are these: biotinylated PES. The format is binding, human. Here is the method: FIG. 1. PES Binds to HSP70. (A) Whole cell extracts (WCE) prepared from A875 and BCL-xL over-expressing U2OS human osteosarcoma cells (BX-U2OS) cells, treated with Biotin or Biotin-PES (B-PES), were captured using NeutrAvidin agarose resins. HSP70-family proteins were identified as the major product in the excised band of ˜70 kDa shown in both Coomassie gels. (B and C) WCE were prepared from the cell lines indicated following 24 h treatment with 20 μM Biotin or B-PES and examined for the expression of proteins indicated (left panel of B and C) by western blot analysis; note that different exposure times were used to visualize these proteins. […] (D) In vitro evidence for an interaction between B-PES and HSP70. Full-length human HSP70 and human HSP90 proteins were in vitro translated in the presence of ^35S-methionine, mixed with B-PES coupled to NeutrAvidin resins, and eluted using 100 mM DTT. […] (F) Non-transformed human IMR90 fibroblasts or H1299 lung carcinoma cells were treated with the indicated concentrations of PES for 24 h and cell viability was determined by MTT assays. […]
The free amide group of PES-Cl was biotinylated and added to HA-tagged HSP70-transfected H1299 cells. […] The complexes were pulled down with NeutrAvidin beads, eluted with 100 mM DTT treatments, separated with SDS-PAGE and detected with anti-HA antibody (Millipore) by Western blot. […]

The target of series [3] is T1, HSP70. The series is described as follows: Immunoprecipitation-western blot of HSP70 complexes with co-chaperones and substrate proteins. The format is cell-based. The arrangement: endogenous in cells; host or cells: human tumor cell lines (A875, BX-U2OS, U2OS, H1299, MiaPaCa2, HepG2, SKBR3, 293T). A general note: In western blotting, separated proteins are transferred to a membrane and probed.
Target sequence in this assay (P0DMV8 whole entry): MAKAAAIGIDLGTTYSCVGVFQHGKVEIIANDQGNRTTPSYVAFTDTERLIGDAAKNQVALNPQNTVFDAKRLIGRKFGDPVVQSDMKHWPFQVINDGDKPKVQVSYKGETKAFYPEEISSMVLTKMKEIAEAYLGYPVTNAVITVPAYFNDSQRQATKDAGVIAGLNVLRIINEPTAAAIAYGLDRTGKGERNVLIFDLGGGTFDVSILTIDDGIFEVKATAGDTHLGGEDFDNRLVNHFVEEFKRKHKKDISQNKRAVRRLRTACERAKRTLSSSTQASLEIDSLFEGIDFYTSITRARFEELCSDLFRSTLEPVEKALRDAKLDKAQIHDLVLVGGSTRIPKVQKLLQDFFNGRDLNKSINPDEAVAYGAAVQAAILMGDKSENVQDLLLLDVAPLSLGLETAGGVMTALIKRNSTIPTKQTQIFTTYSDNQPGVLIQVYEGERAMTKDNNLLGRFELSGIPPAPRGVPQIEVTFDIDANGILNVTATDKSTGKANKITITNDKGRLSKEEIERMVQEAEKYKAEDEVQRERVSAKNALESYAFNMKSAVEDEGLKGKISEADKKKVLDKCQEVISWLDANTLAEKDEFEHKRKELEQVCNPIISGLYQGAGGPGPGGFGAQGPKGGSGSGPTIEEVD

The test system of the next series is tumor cell lines. The series is described as follows: MTT cell viability assay. Type of series: cell-based, human. The method, then:
(§1) Cell viability assays were performed using an MTT (methyl thiazolyl tetrazolium) colorimetric assay (Roche Applied Science, Cat. No. 11 465 007 001), with the following modifications. Briefly, cells (1×10^4) were plated into 24 well-assay plates in 0.5 ml media and allowed to attach overnight. […] After the incubation period, 50 μl of the water-soluble MTT labeling reagent [3-[4,5-dimethylthiazol-2-yl]-2,5-diphenyl tetrazolium bromid] were added to the cells, and the cells were incubated for 4 h in a humidified chamber at 37° C. with 5% CO2. The metabolized insoluble formazan crystals were then solubilized using 0.5 ml of the Solubilization solution (10% SDS in 0.01M HCl) per well, and the resulting colored solutions were spectrophotometrically quantified at an absorbance of 570 nm.
(Tetrazolium assays rely on reduction of a dye to a coloured formazan, in cell work by metabolically active cells.)

A short description of the next series: MTT cell viability assay. Type of series: cell-based, human. Particulars: human; 20 μM, all tumor cell lines examined; read-out: loss of cell viability. Here is the method:
as §1

Series [4] has as its system normal human lung fibroblasts (IMR90). The series is described as follows: MTT cell viability assay. Type of series: cell-based. The conditions noted are these: 24 h, except at the highest concentrations used. Here is the method:
as §1

In series [5] the test system is H1299 human lung carcinoma cells. The series is described as follows: MTT cell viability assay. The format is cell-based. Here is the method:
as §1

Series [6] deals with WI38 human fetal lung fibroblasts. The series is described as follows: MTT cell viability assay. Type of series: cell-based. Particulars: except at the highest concentration tested (20 μM). The method, then: as §1

“Also recorded” adds a separate entry of the source.

`NS(=O)(=O)C#Cc1ccccc1` [PES, 2-Phenylethynesulfonamide]: on HSP70 [1], the “interaction with HA-tagged HSP70” value is “interact with HSP70”. Further, in the series with HSP70 [2], the “binding to HSP70 mutants L558R and Y611S” value was “failed to bind PES”. Also, the “abundance of HSP70/BAG-1S complex” value on HSP70 [3] is “no detectable change”. Besides, the “abundance of HSP70/HSP90 complexes” value on HSP70 [3] was “no change in the abundance of HSP70/HSP90 complexes”. For the same compound, the “HSP70 in association with CHIP, HSP40 and APAF1” value at HSP70 [3] (20 μM, 24 h) is “less HSP70 in association with CHIP, HSP40 and APAF1”. Further, the “HSP70 interaction with viral T antigen” value on HSP70 [3] (293 cells with SV40 T antigen, 20 μM) was “interfered with HSP70 and viral T antigen interactions”. Further, the “LAMP2 in a complex with HSP70” value on HSP70 [3] (A875, MiaPaCa2, 20 μM, 24 h) is recorded as “significantly reduced the amount of LAMP2 in a complex with HSP70”. Besides, the “complexes containing p53 and BAK or HSP70” value at HSP70 [3] (A875 and HepG2 cells, PES 20 μM, with or without cisplatin 50 μM) is “not observed”. The “interaction between HSP70 and BAG-1M” value on HSP70 [3] (H1299, U2OS) is given as “clear decrease”. Further, the “HSP70 interaction with integrin α5 and integrin β1” value on HSP70 [3] (H1299 cells) is “reduced HSP70 and integrin α5 and integin β1 interactions”. At HSP70 [3] (MiaPaCa2, A875), the “interaction between monomeric p62/SQSTM1 and HSP70” value is reported as “attenuated the interaction”. Besides, in the series on tumor cell lines (Homo sapiens, various tumor cell lines, read-out: half maximal concentration to exert cytotoxic effect (IC50)), the IC50 fell in the range of 4 to 10 µM. In the series on tumor cell lines (all tumor cell lines examined), the “cell viability, dose response” value is recorded as “dose-dependent loss of cell viability”. Further, in “MTT cell viability assay”, the cytotoxicity at 20 μM is above 50%. The cell viability entry in series [4] was “minimal effect”; in series [5] it was “effective at killing HI299 lung carcinoma cells; also recorded: dose-dependent loss of viability”; in series [6], “no decrease in cell viability”. Moreover, in series [5] (HSP70 shRNA, 20 μM PES 24 h), the “PES-induced cell death after silencing of HSP70” value was “rescued PES-induced cell death”.
